The text below walks through data of patent US10071163B2, “Compositions and methods for selective delivery of oligonucleotide molecules to specific neuron types” (nLife Therapeutics, S.L., priority 2010, dated 2018).

For series [1], the system named is serotonin transporter (5-HTT). As to the kind of experiment: [3H]citalopram autoradiographic binding of serotonin transporter after intranasal 5-HTT-NLF-siRNA. It is filed as in vivo, mice. To be noted: vs vehicle or NLF-nonsense-siRNA, FIG. 15B-C. An excerpt: 24-48. h after NLF-siRNA intranasal administration, mice were killed and their brains were removed and serial coronal sections of 14 μm thickness were obtained at the following AP coordinates, in mm, relative to bregma (Franklin and Paxinos, 1997): 2.2 (prefrontal cortex-PFC), 1.1 to 0.6 (caudate putamen—CPu, lateral and medial septal nucleus—Sep, ventral pallidum—VP), −1.5 to −1.8 (hippocampus—HPC, hypothalamus—Hip) and −4.24 to −4.96 (dorsal raphe nucleus—DR and median raphe nucleus—MnR). Briefly, frozen tissue sections were thawed and dried, preincubated in 50 mM Tris-HCl buffer (pH 7.4 at 25° C.) containing 120 mM NaCl and 5 mM KCl for 15 mm at room temperature. […] After incubation and washing, tissue sections were dipped in distilled ice-cold water and dried rapidly under a cold air stream. Tissues were exposed to tritium-sensitive film together with plastic ^3H-standards for 40 days at 4° C. Quantitative analysis of the autoradiograms was done with AIS computerized image analysis system. By using tissue-calibrated data from the co-exposed radioactive standards, OD values of autoradiograms were transformed to levels of radioactivity bound (nCi/mg tissue protein) to specific brain regions in tissue sections.

The next series deals with 5-HTT mRNA. As to the kind of experiment: In situ hybridization of 5-HTT mRNA after intranasal 5-HTT-NLF-siRNA. It is filed as in vivo, mice (C57BL/6J). The protocol: Twenty-four h after treatment, mice were killed by decapitation and the brains rapidly removed, frozen on dry ice and stored at −20° C. Tissue sections, 14 μm thick, were cut using a microtome-cryostat, thaw-mounted onto APTS (3-aminopropyltriethoxysilane) coated slides and kept at −20° C. until use.
To determine 5-HTT mRNA expression level, in situ hybridization assays were performed using an oligodeoxyribonucleotide probe specific for 5-HIT, complementary to bases 820-863 (Mouse, GenBank Accession Number: NM_010484). The 5-HTT oligonucleotide was individually labeled (2 pmol) at its 3′-end with [^33P]-dATP (>2500 Ci/mmol) using terminal deoxynucleotidyltransferase, purified by centrifugation using QIAquick Nucleotide Removal Kit. The protocols for single label in situ hybridization were based on previously described procedures. Briefly, frozen tissue sections, as described in example 2, were first brought to room temperature, fixed for 20 min at 4° C. in 4% paraformaldehyde in phosphate buffered saline (1×PBS: 8 mM Na2HPO4, 1.4 mM KH2PO4, 136 mM NaCl, 2.6 mM KCl), washed for 5 min in 3×PBS at room temperature, twice for 5 min each in 1×PBS and incubated for 2 min at 21° C. in a solution of pre-digested pronase at a final concentration of 24 U/ml in 50 mM Tris-HCl pH 7.5, 5 mM EDTA. The enzymatic activity was stopped by immersion for 30 s in 2 mg/ml glycine in 1×PBS. […]

For “5-HTT-NLF-siRNA: 5-HTT-targeted siRNA (SEQ ID NO 14/15) conjugated to a group of formula (I) and one targeting agent (sertraline) (chain 1 GCUAGCUACAACAAGUUCATT; chain 2 UGAACUUGUUGUAGCUAGCTT; further chemistry not given here)”, in series [1], the “serotonin transporter levels in the different brain areas” value is on record as “reduction of the serotonin transporter levels”. The “5-HTT mRNA level in dorsal (DR) and median (MnR) raphe nuclei” value in the series with 5-HTT mRNA (intranasal 10 and 30 μg, vs vehicle and nonsense-NLF-siRNA, FIG. 15A) is reported as “reduction of 5-HTT mRNA level”. Further, the “knockdown of 5-HTT mRNA in dorsal raphe nuclei” value in the series with 5-HTT mRNA (intranasal, both doses (10 and 30 μg/mice), three antero-posterior coordinates, FIG. 14A) is recorded as “specific knowdown of 5-HTT mRNA”.
